The values that follow come from patent US8058243B2, “Method for treating a brain cancer with ifenprodil” (HSC Research and Development Limited Partnership, priority 2006, dated 2011).

For the assay, the system named is murine neural precursor cells (neurosphere cultures). The assay can be described thus: HTS of LOPAC library against secondary neurosphere cultures, MTT proliferation assay at 3 μM, day 7 (z score, P value). The class given is cell-based, mouse.
[1] abbreviates: LOPAC primary screen, neurosphere MTT proliferation, 3 μM, day 7.
The mark [2] stands for this setting: yes/no: significantly inhibited neurosphere proliferation in primary screen.
Where [3] appears, read: yes = significantly inhibited neurosphere proliferation (P<0.01) in the primary screen.
The mark [4] stands for this setting: LOPAC library screen at 3 μM, secondary neurosphere cultures, MTT.
Setting [5] is: yes/no: significantly inhibited neurosphere proliferation (P<0.01) in primary screen.
Setting [6] is: LOPAC screen, neurosphere MTT proliferation, 3 μM, day 7.
[7] abbreviates: yes/no: significantly inhibited neurosphere proliferation (P<0.01) in the primary screen.
Setting [8] is: primary LOPAC screen, 3 μM, MTT, neurosphere proliferation.
Setting [9] is: yes/no: significantly inhibited neurosphere proliferation in the primary screen.
The mark [10] stands for this setting: LOPAC library screen, 3 μM, MTT, neurosphere cultures.

Counter-ions that a name gives are not always drawn. Like-named read-outs stand apart in the source and are kept apart here.

On to `Cl.NCCNC(=O)c1ccc(Cl)cc1` [Ro 16-6491 hydrochloride], for which the “Z Score” value is given as −2.181. The same compound gave a Z score under setting [1] of −2.181. In addition, the Activity entry under setting [2] was “no”.

`O=C(c1cc(O)c(O)c([N+](=O)[O-])c1)c1ccccc1F` [Ro 41-0960]: the “Z Score” value is on record as −0.36. Under setting [1], this compound registered a Z score of −0.360. Also, the Activity entry under setting [2] is on record as “no”.

For the compound `Cl.NCCNC(=O)c1ncsc1-c1cccc(F)c1` [Ro 41-1049 hydrochloride], the “Z Score” value was 1.328. The compound further had a Z score under setting [1] of 1.328. Also, the Activity result under setting [2] is “no”.

In the case of `COc1ccc(C2CNC(=O)C2)cc1OC1CCCC1` (centres unmarked) [Rolipram], under “LOPAC library screen, 3 μM, MTT, secondary neurosphere cultures, day 7”, the “Z Score” value is −2.091. In addition, the Z score under setting [1] is recorded as −2.091. For the same compound, the Activity result under setting [2] is “no”.

For `CCCN(CCC)CCc1cccc2c1CC(=O)N2` [Ropinirole hydrochloride], the Activity result is “no”. Also, under “168 h, 3 µM”, the “Z Score” value was −0.2552 and the Z score is −0.255.

As to `CC[C@H](CO)Nc1nc(NCc2ccccc2)c2ncn(C(C)C)c2n1` [Roscovitine], the Activity entry is reported as “no”, the “Z Score” value was 0.00273 and the Z score is recorded as 0.003.

With `C=C(C)[C@H]1Cc2c(ccc3c2O[C@@H]2COc4cc(OC)c(OC)cc4[C@@H]2C3=O)O1` [Rotenone], the “Z Score” value is on record as −11.27. Moreover, under setting [1], the Z score was −11.274. The Activity entry under setting [3] is “yes”.

For the compound `CC(=O)c1c(O)c(C)c(O)c(Cc2c(O)c3c(c(C(=O)/C=C/c4ccccc4)c2O)OC(C)(C)C=C3)c1O` [Rottlerin], the “Z Score” value was 0.3042. Moreover, the Z score under setting [1] came to 0.304. For the same compound, the Activity entry under setting [2] is given as “no”.

With `CCN(CC)CC.Nc1ncnc2c1ncn2C1OC2COP(O)(=S)O[C@@H]2[C@@H]1O` (some centres unmarked) [Rp-cAMPS triethylamine], the Activity result is on record as “no”, the “Z Score” value stood at 1.186 and the Z score was found to be 1.186.

Turning to `O=c1c2ccccc2nc2n1CCc1c-2[nH]c2ccccc12` [Rutaecarpine], under “168 h, 3 µM”, the “Z Score” value is 0.6857 and the Z score is 0.686.

With `N.N.N.N.N.N.N.N.N.N.N.N.N.N.[Cl-].[Cl-].[Cl-].[Cl-].[Cl-].[Cl-].[O-2].[O-2].[Ru+3].[Ru+3].[Ru+4]` [Ruthenium red], the “Z Score” value is reported as −0.07388. The compound also yielded a Z score under setting [1] of −0.074. For the same compound, the Activity entry under setting [2] is on record as “no”.

In the case of `CC(C)Cc1ccc([C@H](C)C(=O)O)cc1` [S(+)-Ibuprofen], under setting [4], the “Z Score” value was −0.7335. The Z score under setting [1] was −0.733. Under setting [5], the Activity entry was “no”.

Consider `CC(C)NC[C@@H](O)c1ccc(O)c(O)c1.O=C(O)C(O)C(O)C(=O)O` [S(+)-Isoproterenol (+)-bitartrate], for which the “Z Score” value is on record as −0.2963.

The compound `CC(C)NC[C@@H](O)c1ccc(O)c(O)c1.O=C(O)C(O)C(O)C(=O)O` [S(+)-Isoproterenol(+)-bitartrate] came in with a Z score under setting [1] of −0.296. For the same compound, the Activity entry under setting [5] is recorded as “no”.

Take `CCCN1CCO[C@@H]2c3cc(O)ccc3OC[C@H]21.Cl` [S(+)-PD 128,907 hydrochloride]: the “Z Score” value is −1.174. Further, the Z score under setting [1] is reported as −1.174. The Activity entry under setting [2] is “no”.

Regarding `CCCN1CCC[C@@H](c2cccc(O)c2)C1.Cl` [S(−)-3PPP hydrochloride], the “Z Score” value is given as −0.4205. Also, under setting [1], the Z score is −0.421. Besides, under setting [2], the Activity entry is given as “no”.

As for `CCCN1CCC[C@@H](c2cccc(C#N)c2)C1.Cl` [S(−)-DS 121 hydrochloride], the “Z Score” value was −0.0998. Also, the Z score under setting [6] is listed as −0.100. The Activity entry under setting [5] is “no”.

Take `CCN1CCC[C@H]1CNC(=O)c1c(OC)ccc(I)c1O` [S(−)-IBZM]: the “Z Score” value was −0.1166. The same compound registered a Z score under setting [1] of −0.117. Besides, under setting [7], the Activity result is on record as “no”.

With `CC(C)NCC(O)COc1cccc2[nH]ccc12` (stereo not drawn) [S(−)-Pindolol], the Z score under setting [1] is on record as −1.122 and the Z score under setting [6] is −0.965. The Activity result reads like this: under setting [5], “no”; under setting [2], “no”.

Regarding `CCCN(CCC)[C@H]1CCc2c(F)ccc(O)c2C1.Cl` [S(−)-UH-301 hydrochloride], the “Z Score” value is recorded as −2.706. This compound also had a Z score under setting [1] of −2.706. The Activity result under setting [7] is “yes”.

Turning to `N[C@@H](Cn1cc(I)c(=O)[nH]c1=O)C(=O)O` [S-5-Iodowillardiine], the “Z Score” value was −0.3551. This compound also displayed a Z score under setting [8] of −0.355. For the same compound, the Activity result under setting [9] is reported as “no”.

For the compound `Nc1nc(SCc2ccc([N+](=O)[O-])cc2)c2ncn([C@@H]3O[C@H](CO)[C@@H](O)[C@H]3O)c2n1` [S-(4-Nitrobenzyl)-6-thioguanosine], the “Z Score” value under setting [10] came to 0.1017. This compound also came in with a Z score under setting [1] of 0.102. For the same compound, the Activity entry under setting [2] is on record as “no”.

Consider `O=[N+]([O-])c1ccc(CSc2ncnc3c2ncn3[C@@H]2O[C@H](CO)[C@@H](O)[C@H]2O)cc1` [S-(4-Nitrobenzyl)-6-thioinosine], for which, for the setting “168 h, 3 µM”, the “Z Score” value is on record as −0.4271 and the Z score is reported as −0.427. Also, under setting [3], the Activity result was “no”.

For the compound `CNCC[C@H](Oc1ccc(C(F)(F)F)cc1)c1ccccc1.Cl` [S-(+)-Fluoxetine hydrochloride], the “Z Score” value under setting [4] is −0.8088. Also, the Z score under setting [1] is listed as −0.809. In addition, under setting [5], the Activity entry is reported as “no”.

Take `[N-]=[N+]=Nc1ccc(C(=O)CSC[C@H](NC(=O)CC[C@H](N)C(=O)O)C(=O)NCC(=O)O)cc1` [S-(p-Azidophenacyl)glutathione]: the “Z Score” value under setting [10] was −0.00276. For the same compound, the Z score under setting [8] is recorded as −0.003. Moreover, the Activity result under setting [9] is “no”.

With `CCc1cc(Cl)c(OC)c(C(=O)NC[C@@H]2CCCN2CC)c1O.Cl` [S-(−)-Eticlopride hydrohloride], the Z score under setting [1] is recorded as −5.158. Also, the Activity entry under setting [7] is recorded as “yes”.

As for `Br.CCSC(=N)N` [S-Ethylisothiourea hydrobromide], where the note is “168 h, 3 µM”, the “Z Score” value is −1.599 and the Z score is on record as −1.599. Further, under setting [5], the Activity entry was “no”.

As for `CC(=O)O.CSC(=N)NCCC[C@H](N)C(=O)O` [S-Methyl-L-thiocitrulline acetate], the “Z Score” value is −1.751. Under setting [1], this compound yielded a Z score of −1.751. The Activity result under setting [3] was “no”.

As to `CSC(=N)N.CSC(=N)N.O=S(=O)(O)O` [S-Methylisothiourea hemisulfate], the Activity result was “no”, the “Z Score” value is given as −0.2111 and the Z score is given as −0.211.

For the compound `N[C@@H](CCC(=O)N[C@@H](CSN=O)C(=O)NCC(=O)O)C(=O)O` [S-Nitrosoglutathione], where the note is “168 h, 3 µM”, the “Z Score” value was found to be 0.6978 and the Z score came to 0.698. Also, the Activity result under setting [3] is “no”.

Take `Cl.Cn1ccc2cc(NC(=O)Nc3cccnc3)ccc21` [SB 200646 hydrochloride]: the “Z Score” value was 2.437. The Z score under setting [8] is reported as 2.437. Besides, under setting [9], the Activity entry is given as “no”.

Regarding `O=C(OCCN1CCCCC1)c1c[nH]c2ccccc12` [SB 203186], the “Z Score” value is listed as 0.9365. Under setting [6], this compound gave a Z score of 0.937. Also, the Activity entry under setting [5] is given as “no”.
